From patent publication US20090239846A1, “Novel Compounds” (Glaxo Group Limited, priority 2005, published 2009)
Where a name gives a salt, the structure may show the parent alone. Read-outs that look alike come from different tables or passages of the source.

Key:
TNFalpha = assay: LPS-stimulated cytokine production in human whole blood; type: cell-based; conditions: LPS-stimulated TNF-alpha, bound, read-out: IC50
Method: Assay: Test compound concentrations were prepared at 10× concentrations and LPS prepared at 1 ug/ml (final conc. of 50 ng/ml LPS) and added in 50 uL volumes to 1.5 mL eppendorf tubes. Heparinized human whole blood was obtained from healthy volunteers and was dispensed into eppendorf tubes or multiwell plates containing compounds and LPS in 0.2-0.4 mL volumes and the tubes incubated at 37 C. In some studies, compound was incubated with blood for up to 30 min prior to addition of LPS. Following a 4 hour incubation, the tubes or plates were centrifuged to remove cells and plasma was withdrawn and frozen at −80 C. Cytokine measurement: IL-1beta and/or TNFalpha were quantified using a standardized ELISA, or similar technology. Concentrations of IL-1beta or TNFalpha were determined from standard curves of the appropriate cytokine and IC50 values for test compound (concentration that inhibited 50% of LPS-stimulated cytokine production) were calculated by linear regression analysis.

Recombinant human p38α [1] = target: T1, Recombinant human p38α (Homo sapiens, UniProt Q16539); assay: Fluorescence anisotropy kinase binding assay (standard or low volume); conditions: for active in the assay (pIC50, p38α binding): 12 nM p38α, 5 nM fluorescent ligand; for IC50: bound, read-out: apparent pIC50 (converted)
T1 construct: GST; made in house
T1 sequence (Q16539 whole entry): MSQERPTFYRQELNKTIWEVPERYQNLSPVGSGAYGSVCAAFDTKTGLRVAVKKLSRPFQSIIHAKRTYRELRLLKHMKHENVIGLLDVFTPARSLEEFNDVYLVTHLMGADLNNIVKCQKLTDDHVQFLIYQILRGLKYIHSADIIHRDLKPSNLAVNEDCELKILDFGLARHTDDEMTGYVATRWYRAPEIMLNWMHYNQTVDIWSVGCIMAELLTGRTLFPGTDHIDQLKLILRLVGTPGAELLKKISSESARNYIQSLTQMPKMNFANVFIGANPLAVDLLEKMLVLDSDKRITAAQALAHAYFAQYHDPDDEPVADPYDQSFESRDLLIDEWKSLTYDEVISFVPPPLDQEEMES
In short: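 Activated GST-tagged recombinant human p38α (pre-activated with MBP-MKK6 DD) at 12 nM final with 5 nM rhodamine green-labelled pyridinylimidazole tracer in pH 7.5 HEPES/CHAPS/DTT/MgCl2 buffer. Test compound 0.28 nM–16.6 μM or 0.02 nM–25 μM final, 3% or 1.7% DMSO; 30–60 min at room temperature. Fluorescence anisotropy read (ex 485/em 535 nm) for Ki.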

Recombinant human p38α [2] = target: T1, Recombinant human p38α; assay: Time-resolved fluorescence resonance energy transfer (TR-FRET) kinase assay (standard or low volume); type: biochemical
Method: […] To activate this protein, 3 μM unactivated p38α was incubated in 200 mM Hepes pH 7.4, 625 mM NaCl, 1 mM DTT with 27 nM active MKK6 (Upstate), 1 mM ATP and 10 mM MgCl2 The activity of the MKK6-activated p38α was assessed using a time-resolved fluorescence resonance energy transfer (TR-FRET) assay. Biotinylated-GST-ATF2 (residues 19-96, 400 nM final), ATP ([…]) and MgCl2 (5 mM final) in assay buffer (40 mM HEPES pH 7.4, 1 mM DTT) were added to wells containing 1 ul of various concentrations of compound or DMSO vehicle (3% final) in NUNC 384 well black plate. The reaction was initiated by the addition of MKK6-activated p38 (100 pM final) to give a total volume of 30 ul. The reaction was incubated for 120 minutes at room temperature, then terminated by the addition of 15 μl of 100 mM EDTA pH 7.4. Detection reagent (15 μl) in buffer (100 mM HEPES pH 7.4, 150 mM NaCl, 0.1% w/v BSA, 1 mM DTT) containing antiphosphothreonine-ATF2-71 polyclonal antibody (Cell Signalling Technology, Beverly Mass., USA) labelled with W-1024 europium chelate (Wallac OY, Turku, Finland), and APC-labelled streptavidin (Prozyme, San Leandro, Calif., USA) was added and the reaction was further incubated for 60 minutes at room temperature. The degree of phosphorylation of GST-ATF2 was measured using a Packard Discovery plate reader (Perkin-Elmer Life Sciences, Pangbourne, UK) as a ratio of specific 665 nm energy transfer signal to reference europium 620 nm signal.
[…] To activate this protein, 3 μM unactivated p38α was incubated in 200 mM Hepes pH7.4, 625 mM NaCl, 1 mM DTT with 27 nM active MKK6 (Upstate), 1 mM ATP and 10 mM MgCl2 The activity of the MKK6-activated p38α was assessed using a time-resolved fluorescence resonance energy transfer (TR-FRET) assay. Biotinylated-GST-ATF2 (residues 19-96, 400 nM final), ATP (125 μM final) and MgCl2 (5 mM final) in assay buffer (40 mM HEPES pH 7.4, 1 mM DTT) were added to wells containing 0.1 μl of various concentrations of compound or DMSO vehicle (1.7% final) in Greiner low volume 384 well black plate. The reaction was initiated by the addition of MKK6-activated p38α (100 pM final) to give a total volume of 6 μl. The reaction was incubated for 120 minutes at room temperature, then terminated by the addition of 3 μl of detection reagent in buffer (100 mM HEPES pH 7.4, 150 mM NaCl, 0.1% w/v BSA, 1 mM DTT, 100 mM EDTA) containing antiphosphothreonine-ATF2-71 polyclonal antibody (Cell Signalling Technology, Beverly Mass., USA) labelled with W-1024 europium chelate (Wallac OY, Turku, Finland), and APC-labelled streptavidin (Prozyme, San Leandro, Calif., USA). The reaction was further incubated for 60 minutes at room temperature. The degree of phosphorylation of GST-ATF2 was measured using a BMG Rubystar plate reader (BMG, UK) as a ratio of specific 665 nm energy transfer signal to reference europium 620 nm signal. It is noted that there are two assay formats shown above for the Time-resolved fluorescence resonance energy transfer kinase assay. The only difference between these two assays is the volume used and the plate type. […] The results described herein may have been performed in either assay format and are not differentiated as to which.

[3] = tested on: IL-6, IL-8, GM-CSF, RANTES and COX-2 synthesis; conditions: a number of different cell types; cited from earlier work
[4] = tested on: IL-8 production by human neutrophils; assay: TNF-stimulated IL-8 production from human neutrophils; type: cell-based; conditions: Neutrophil
[5] = tested on: TGF-β-induced fibronectin and thrombospondin; conditions: Laping et al., 2002; cited from earlier work
[6] = second end given as 'less than', read-out: pIC50, broad range of data upon multiple runs (converted)
[7] = bound, not more than 50% inhibition at 100 nM, read-out: IC50
[8] = bound, read-out: pIC50 (converted)

SMILES	IC50 (Recombinant human p38α [2]; [6]) [µM]	IC50 (Recombinant human p38α [1]) [µM]	IC50 [4, 7] [µM]	also measured
Cc1ccc(C(=O)O)cc1-c1nc(NCCN(C)C)nc2c1CNC(=O)N2c1c(F)cccc1F [Example 117, 3-(8-(2,6-difluorophenyl)-2-{[2-(dimethylamino)ethyl]amino}-7-oxo-5,6,7,8-tetrahydropyrimido[4,5-d]pyrimidin-4-yl)-4-methylbenzoic acid]	≥ 0.158			IC50 (TNFalpha): > 1 µM; active in the assay (pIC50, p38α binding) (Recombinant human p38α [1]): active
Fc1ccc(-c2nc3n(c2-c2ccncc2)CCS3)cc1 [SK&F 86002]				decreasing the synthesis of pro-inflammatory proteins including IL-6, IL-8, GM-CSF, RANTES and COX-2 [3]: effective
Cc1cc(C(=O)Nc2ccccc2)ccc1-c1nc(NCCN(C)C)nc2c1CNC(=O)N2c1c(F)cccc1F [Example 106, 4-(8-(2,6-difluorophenyl)-2-{[2-(dimethylamino)ethyl]amino}-7-oxo-5,6,7,8-tetrahydropyrimido[4,5-l]pyrimidin-4-yl)-3-methyl-N-phenylbenzamide trifluoroacetate]	≥ 0.158	> 15.8	> 0.1	
Cc1cc(C(=O)NC(C)C)ccc1-c1nc(NCCN(C)C)nc2c1CNC(=O)N2c1c(F)cccc1F [104(c), 4-(8-(2,6-difluorophenyl)-2-{[2-(dimethylamino)ethyl]amino}-7-oxo-5,6,7,8-tetrahydropyrimido[4,5-d]pyrimidin-4-yl)-3-methyl-N-(1-methylethyl)benzamide trifluoroacetate]	≥ 0.158	> 15.8	> 0.1	
Cc1cc(C(=O)Nc2ccc(F)cc2)ccc1-c1nc(NCCN(C)C)nc2c1CNC(=O)N2c1c(F)cccc1F [Example 107, 4-(8-(2,6-difluorophenyl)-2-{[2-(dimethylamino)ethyl]amino}-7-oxo-5,6,7,8-tetrahydropyrimido[4,5-d]pyrimidin-4-yl)-N-(4-fluorophenyl)-3-methylbenzamide trifluoroacetate]		> 15.8	> 0.1	IC50 (Recombinant human p38α [2]; [8]): > 1.58 µM
CC(C)NC(=O)c1ccc(-c2nc(NCCN(C)C)nc3c2CNC(=O)N3c2c(F)cccc2F)cc1 [Example 97, 4-(8-(2,6-difluorophenyl)-2-{[2-(dimethylamino)ethyl]amino}-7-oxo-5,6,7,8-tetrahydropyrimido[4,5-d]pyrimidin-4-yl)-N-(1-methylethyl)benzamide trifluoroacetate]	≥ 0.158	> 15.8		
CNC(=O)c1ccc(-c2nc(NCCN(C)C)nc3c2CNC(=O)N3c2c(F)cccc2F)cc1 [Example 102, 4-(8-(2,6-difluorophenyl)-2-{[2-(dimethylamino)ethyl]amino}-7-oxo-5,6,7,8-tetrahydropyrimido[4,5-d]pyrimidin-4-yl)-N-methylbenzamide trifluoroacetate]	≥ 0.158	> 15.8		
CCCNC(=O)c1ccc(-c2nc(NCCN(C)C)nc3c2CNC(=O)N3c2c(F)cccc2F)c(C)c1 [Example 105, 4-(8-(2,6-difluorophenyl)-2-{[2-(dimethylamino)ethyl]amino}-7-oxo-5,6,7,8-tetrahydropyrimido[4,5-d]pyrimidin-4-yl)-3-methyl-N-propylbenzamide trifluoroacetate]		> 15.8	> 0.1	IC50 (Recombinant human p38α [2]; [8]): > 1.58 µM
Cc1cc(C(N)=O)ccc1-c1nc(NCCN(C)C)nc2c1CNC(=O)N2c1c(F)cccc1F [Example 110, 4-(8-(2,6-difluorophenyl)-2-{[2-(dimethylamino)ethyl]amino}-7-oxo-5,6,7,8-tetrahydropyrimido[4,5-d]pyrimidin-4-yl)-3-methylbenzamide trifluoroacetate]		> 15.8	> 0.1	IC50 (Recombinant human p38α [2]; [8]): > 1.58 µM
Cc1ccc(C(=O)Nc2ccc(C)c(-c3nc(NC4CCNCC4)nc4c3CNC(=O)N4c3c(F)cccc3F)c2)cc1F [Example 27(b), N-{3-[8-(2,6-difluorophenyl)-7-oxo-2-(4-piperidinylamino)-5,6,7,8-tetrahydropyrimido[4,5-d]pyrimidin-4-yl]-4-methylphenyl}-3-fluoro-4-methylbenzamide]				active in the assay (pIC50, p38α binding) (Recombinant human p38α [1]): active; IC50 (Recombinant human p38α [2]; [8]): > 15.8 µM; melting point: 218 to 223.5 °C
COc1nccc(-c2c(-c3ccc(F)cc3)ncn2C2CCNCC2)n1 [SB-242235]				effect on TGF-β-induced increases in fibronectin and thrombospondin [5]: inhibited
Cc1ccc(C(=O)NC2CCC2)cc1-c1nc(N2CCC(N)CC2)nc2c1CNC(=O)N2c1c(F)cccc1F [1(g), 3-[2-(4-Amino-1-piperidinyl)-8-(2,6-difluorophenyl)-7-oxo-5,6,7,8-tetrahydropyrimido[4,5-d]pyrimidin-4-yl]-N-cyclobutyl-4-methylbenzamide]	≥ 0.00794			active in the assay (pIC50, p38α binding) (Recombinant human p38α [1]): active; IC50 ([4]; ends given as 'less than' / 'greater than', read-out: IC50, broad range of data upon multiple runs): 0.04 to 0.1 µM
Cc1ccc(C(=O)NCc2ccccc2)cc1-c1nc(NCCN(C)C)nc2c1CNC(=O)N2c1c(F)cccc1F [Example 18, 3-(8-(2,6-Difluorophenyl)-2-{[2-(dimethylamino)ethyl]amino}-7-oxo-5,6,7,8-tetrahydropyrimido[4,5-d]pyrimidin-4-yl)-4-methyl-N-(phenylmethyl)benzamide]	≥ 0.00794			melting point: 148 to 150 °C
C[S+]([O-])c1ccc(-c2nc(-c3ccncc3)c(-c3ccc(F)cc3)[nH]2)cc1 (stereo not drawn) [SB-203580]				decreasing the synthesis of pro-inflammatory proteins including IL-6, IL-8, GM-CSF, RANTES and COX-2 [3]: effective
Cc1cc(C(=O)N(C)C)ccc1-c1nc(NCCN(C)C)nc2c1CNC(=O)N2c1c(F)cccc1F [Example 108, 4-(8-(2,6-difluorophenyl)-2-{[2-(dimethylamino)ethyl]amino}-7-oxo-5,6,7,8-tetrahydropyrimido[4,5-d]pyrimidin-4-yl)-N,N,3-trimethylbenzamide trifluoroacetate]	≥ 0.158	> 15.8	> 0.1	
